27 molecules from patent publication US7799775B2, “Pyrimidine derivatives” (ASKA Pharmaceutical Co., Ltd., priority 2004, dated 2010) can be followed below.

For one assay, the target named is T1, human 5-HT3 receptor (Homo sapiens, UniProt P46098).
T1 construct: purchased BIOLINKS K.K; host or cells: HEK-293 cells (membrane preparation)
T1 sequence (P46098 24-478): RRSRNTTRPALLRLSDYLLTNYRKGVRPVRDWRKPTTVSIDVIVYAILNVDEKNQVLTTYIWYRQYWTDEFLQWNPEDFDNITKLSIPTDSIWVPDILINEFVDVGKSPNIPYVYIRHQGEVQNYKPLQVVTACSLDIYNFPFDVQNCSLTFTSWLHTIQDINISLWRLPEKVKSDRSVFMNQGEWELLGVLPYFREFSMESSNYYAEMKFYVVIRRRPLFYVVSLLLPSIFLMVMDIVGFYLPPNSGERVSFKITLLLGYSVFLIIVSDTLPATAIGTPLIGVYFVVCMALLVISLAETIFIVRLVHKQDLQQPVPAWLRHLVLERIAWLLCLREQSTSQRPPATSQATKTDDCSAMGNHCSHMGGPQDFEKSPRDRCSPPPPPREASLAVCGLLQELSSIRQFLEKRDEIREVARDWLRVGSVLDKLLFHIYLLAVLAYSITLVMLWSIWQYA
The assay can be described thus: Measurement of affinity to human 5-HT3 receptor (in vitro), [3H]BRL-43694 binding. The following applies: test compound 100 nmols/L; [3H]BRL-43694 0.5 nmols/L; HEK-293 cell membrane expressing human 5-HT3 receptor; read-out: Percent Inhibition (%) on Each Receptor's Binding at 10^−7M, 5-HT3. Put shortly: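 Membranes from HEK-293 cells expressing the receptor were incubated with 0.5 nmol/L radioligand and compound for 60 min at 25 °C in Tris/MgCl2/EDTA buffer, pH 7.5. Bound radioactivity was collected by filtration and counted. Percent inhibition was corrected for non-specific binding defined with 10 μmol/L tropisetron; compounds were tested at 100 nmol/L.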

A further assay addresses T2, human 5-HT1A receptor (Homo sapiens, UniProt P08908).
T2 construct: purchased Packard Bioscience; host or cells: CHO cells (membrane preparation)
T2 sequence (P08908 1-422): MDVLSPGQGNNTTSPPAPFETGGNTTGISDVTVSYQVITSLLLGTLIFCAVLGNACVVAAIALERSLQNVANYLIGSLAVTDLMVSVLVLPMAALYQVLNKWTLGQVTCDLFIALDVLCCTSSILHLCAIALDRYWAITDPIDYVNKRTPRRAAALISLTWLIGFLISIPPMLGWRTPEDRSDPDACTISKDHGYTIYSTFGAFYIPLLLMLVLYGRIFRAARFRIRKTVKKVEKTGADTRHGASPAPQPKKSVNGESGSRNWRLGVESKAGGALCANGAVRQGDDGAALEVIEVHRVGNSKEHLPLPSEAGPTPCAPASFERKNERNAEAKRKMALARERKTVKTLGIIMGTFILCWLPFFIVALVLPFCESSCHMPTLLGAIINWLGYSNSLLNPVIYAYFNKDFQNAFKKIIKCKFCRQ
The assay can be described thus: Affinity measurement of the compounds to human 5-HT1A receptor (in vitro), [3H]8-OH-DPAT binding. Conditions: test compound 100 nmols/L; [3H]8-OH-DPAT 0.25 nmols/L; CHO cell membrane expressing human 5-HT1A receptor; read-out: Percent Inhibition (%) on Each Receptor's Binding at 10^−7M, 5-HT1A. Put shortly: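 Membranes from CHO cells expressing human 5-HT1A were incubated 60 min at 27 °C with 0.25 nmol/L [3H]8-OH-DPAT and compound in Tris/MgSO4/EDTA/ascorbate buffer, pH 7.4. Bound radioactivity was collected on PEI-soaked GF/C filters and counted; percent inhibition was corrected for non-specific binding defined with 10 μmol/L 8-OH-DPAT.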

The inhibition is the share of the control response that was lost under treatment. Regarding `Cc1cc2c(N3CCN4CCC[C@@H]4C3)nccc2o1` [Production Example 115, 4-((8aR)-octahydropyrrolo[1,2-a]pyrazin-2-yl)-2-methylfuro[3,2-c]pyridine], the results for the inhibition at 0.1 µM on human 5-HT3 receptor and at human 5-HT1A receptor were 74.3% and 82%, respectively.
Take `NNc1cccc2nc(CCCCN3CCN(c4ccc5ccccc5n4)CC3)n(N)c(=O)c12` [Example 4-28, 3-amino-5-hydrazino-2-[4-(4-quinolin-2-ylpiperazin-1-yl)butyl]-3H-quinazolin-4-one]: the inhibition at 0.1 µM was found to be 45.1% on human 5-HT3 receptor and 97.6% at human 5-HT1A receptor.
Consider `CN1CCN(c2nccc3ccc(F)cc23)CC1` [Production Example 52, 7-fluoro-1-(4-methylpiperazin-1-yl)isoquinoline], for which the figures for the inhibition at 0.1 µM on human 5-HT3 receptor and at human 5-HT1A receptor were 97% and 84.1%, respectively.
For `c1cc2ccoc2c(N2CCN3CCC[C@@H]3C2)n1` [Production Example 110, 7-((8aR)-octahydropyrrolo[1,2-a]pyrazin-2-yl)furo[2,3-c]pyridine], the inhibition at 0.1 µM at human 5-HT3 receptor worked out at 97.9%; on human 5-HT1A receptor, 98.9%.
`Cc1sc2nc(SCCCN3CCN(c4ccc5ccccc5n4)CC3)n(N)c(=O)c2c1C` [Example 1-1, 3-amino-5,6-dimethyl-2-[3-(4-quinolin-2-ylpiperazin-1-yl)-propylthio]-3H-thieno[2,3-d]pyrimidin-4-one]: the inhibition at 0.1 µM was 94% on human 5-HT3 receptor and 94.5% at human 5-HT1A receptor.
Turning to `Cn1c(CCCCN2CCN(c3nc4ccccc4s3)CC2)nc2c(c1=O)CCCC2` [Example 7-9, 2-[4-(4-benzothiazol-2-ylpiperazin-1-yl)butyl]-3-methyl-5,6,7,8-tetrahydro-3H-quinazolin-4-one], the inhibition at 0.1 µM was found to be 32% on human 5-HT3 receptor and 91% on human 5-HT1A receptor.
Regarding `Cn1c(SCCCN2CCN(c3ccc4ccccc4n3)CC2)nc2c(c1=O)CCCC2` [Example 7-27], the inhibition at 0.1 µM at human 5-HT3 receptor was determined as 90.2%; at human 5-HT1A receptor, 87%.
For `Cc1sc2nc(CCCCN3CCN(c4ccc5ccccc5n4)CC3)n(N)c(=O)c2c1C` [Example 4-35, 3-amino-5,6-dimethyl-2-[4-(4-quinolin-2-ylpiperazin-1-yl)butyl]-3H-thieno[2,3-d]pyrimidin-4-one], the inhibition at 0.1 µM on human 5-HT3 receptor was 96.9%; on human 5-HT1A receptor it was 98%.
For the molecule `Nn1c(CCCCN2CCN(c3ccc4ccccc4n3)CC2)nc2c(c1=O)CC(O)CC2` (stereo not drawn) [Example 4-70, 3-amino-6-hydroxy-2-[4-(4-quinolin-2-ylpiperazin-1-yl)butyl]-5,6,7,8-tetrahydro-3H-quinazolin-4-one], the figures for the inhibition at 0.1 µM on human 5-HT3 receptor and on human 5-HT1A receptor were 92.5% and 96.1%, respectively.
Regarding `CCN1CCN(c2nccc3ccsc23)CC1` [Production Example 17, 7-(4-ethylpiperazin-1-yl)-thieno[2,3-c]pyridine], the inhibition at 0.1 µM at human 5-HT3 receptor stood at 82.9%; on human 5-HT1A receptor, 83.6%.
Regarding `Cn1c(NCCCN2CCN(c3ccc4ccccc4n3)CC2)nc2c(c1=O)CCCC2` [Example 7-29, 3-methyl-2-[3-(4-quinolin-2-ylpiperazin-1-yl)propylamino]-5,6,7,8-tetrahydro-3H-quinazolin-4-one], the inhibition at 0.1 µM at human 5-HT3 receptor came out at 93.6%; at human 5-HT1A receptor it was 80.8%.
Regarding `CCn1c(CCCCN2CCN(c3nc4ccccc4s3)CC2)nc2c(c1=O)CCCC2` [Example 7-10, 2-[4-(4-benzothiazol-2-ylpiperazin-1-yl)butyl]-3-ethyl-5,6,7,8-tetrahydro-3H-quinazolin-4-one], the values for the inhibition at 0.1 µM at human 5-HT3 receptor and at human 5-HT1A receptor were 7.1% and 16.1%, respectively.
The corresponding values for `c1ccc(CO[C@@H]2C[C@H]3CN(c4nccc5sccc45)CCN3C2)cc1` [Production Example 117, 4-((7R,8aS)-7-benzyloxyoctahydropyrrolo[1,2-a]pyrazin-2-yl)thieno-[3,2-c]pyridine] are 10.6% and 57.7%.
With `Nn1c(SCCCN2CCN(c3ccc4ccccc4n3)CC2)nc2sc3c(c2c1=O)CCCC3` [Example 1-4, 3-amino-2-[3-(4-quinolin-2-ylpiperazin-1-yl)propylthio]-5,6,7,8-tetrahydro-3H-benzo[4,5]thieno[2,3-d]pyrimidin-4-one], the inhibition at 0.1 µM on human 5-HT3 receptor is 93.2%; at human 5-HT1A receptor, 96.6%.
In the case of `Cn1c(CCCCN2CCN(c3ccc4ccccc4n3)CC2)nc2ccc(Br)cc2c1=O` [Example 7-26, 6-bromo-3-methyl-2-[4-(4-quinolin-2-ylpiperazin-1-yl)butyl]-3H-quinazolin-4-one], the inhibition at 0.1 µM at human 5-HT3 receptor turned out to be 71.6%; at human 5-HT1A receptor, 85.2%.
In the case of `CN1CCN(c2nccc3cccnc23)CC1` [Production Example 23, 8-(4-methylpiperazin-1yl)[1,7]naphthyridine], the inhibition at 0.1 µM on human 5-HT3 receptor was determined as 85.8%; at human 5-HT1A receptor, 83.2%.
As to `Nn1c(CCCCN2CCN(c3ccc4ccccc4n3)CC2)nc2ccc(F)cc2c1=O` [Example 4-56, 3-amino-6-fluoro-2-[4-(4-quinolin-2-ylpiperazin-1-yl)butyl]-3H-quinazolin-4-one], the inhibition at 0.1 µM on human 5-HT3 receptor came to 50.2%; on human 5-HT1A receptor, 96.9%.
Take `O[C@@H]1C[C@H]2CN(c3nccc4ccoc34)CCN2C1` [Production Example 111, 7-((7R,8aS)-7-hydroxyoctahydropyrrolo[1,2-a]pyrazin-2-yl)furo[2,3-c]-pyridine]: the inhibition at 0.1 µM was found to be 95.5% at human 5-HT3 receptor and 48% at human 5-HT1A receptor.
Consider `Cn1c(CCCN2CCN(c3ccc4ccccc4n3)CC2)nc2c(c1=O)CCCC2` [Example 7-5, 3-methyl-2-[3-(4-quinolin-2-ylpiperazin-1-yl)propyl]-5,6,7,8-tetrahydro-3H-quinazolin-4-one], for which the inhibition at 0.1 µM worked out at 6.3% at human 5-HT3 receptor and 53% at human 5-HT1A receptor.
`O=c1[nH]c(SCCCN2CCN(c3ccc4ccccc4n3)CC2)nc2ccsc12` [Example 2-12, 2-[3-(4-quinolin-2-ylpiperazin-1-yl)propylthio]-3H-thieno[3,2-d]-pyrimidin-4-one]: the inhibition at 0.1 µM at human 5-HT3 receptor was 34.6%; at human 5-HT1A receptor it was 41.9%.
Consider `Cc1ccc2nc(CCCCN3CCN(c4ccc5ccccc5n4)CC3)n(N)c(=O)c2c1` [Example 4-20, 3-amino-6-methyl-2-[4-(4-quinolin-2-ylpiperazin-1-yl)butyl]-3H-quinazolin-4-one], for which the figures for the inhibition at 0.1 µM at human 5-HT3 receptor and at human 5-HT1A receptor were 87.8% and 94.3%, respectively.
With `Oc1ccc2ccnc(N3CCN4CCC[C@H]4C3)c2c1` [Production Example 85], the inhibition at 0.1 µM at human 5-HT3 receptor is 98.9%; on human 5-HT1A receptor, 99.9%.
As for `O=c1c2ccccc2nc(CCCCN2CCN(c3ccc4ccccc4n3)CC2)n1Cc1ccccc1` [Example 7-16, 3-benzyl-2-[4-(4-quinolin-2-ylpiperazin-1-yl)butyl]-3H-quinazolin-4-one], the inhibition at 0.1 µM on human 5-HT3 receptor came out at 66.8%; on human 5-HT1A receptor, 72.2%.
Regarding `Clc1ccc2c(N3CCNCC3)nccc2c1` [Production Example 57, 6-chloro-1-piperazin-1-ylisoquinoline], the inhibition at 0.1 µM was 96.5% at human 5-HT3 receptor and 88.9% at human 5-HT1A receptor.
The corresponding values for `c1cc2occc2c(N2CCN3CCC[C@H]3C2)n1` [Production Example 105, 4-((8aS)-octahydropyrrolo[1,2-a]pyrazin-2-yl)furo[3,2-c]pyridine] are 96.4% and 72.7%.
The corresponding values for `Clc1ccc2ccnc(N3CCN4CCC[C@@H]4C3)c2c1` [Production Example 76, 7-chloro-1-((8aR)-octahydropyrrolo[1,2-a]pyrazin-2-yl)isoquinoline] are 94.4% and 96.6%.
For `CN1CCN(c2nccc3c(Cl)cccc23)CC1` [Production Example 61, 5-chloro-1-(4-methylpiperazin-1-yl)isoquinoline], the inhibition at 0.1 µM on human 5-HT3 receptor stood at 94.1%; at human 5-HT1A receptor, 25.3%.
